Laboratory results taken from patent US7323541B2, “Polypeptide DNA thereof and use of the same” (Takeda Pharmaceutical Company Limited, priority 2001, dated 2008).
Positions count from the first letter of the chain named. pEC50: −log10 of the molar value. Where no end group is shown, it is not given here.

Experiments:
Assay in all cases: Intracellular Ca ion concentration increasing activity using FLIPR
Type in all cases: cell-based
[1] = biological target: T1, rat TGR23-1 expressing CHO cells (Rattus norvegicus, UniProt P0C0L6, DEL160-160)
T1 construct: The rat TGR23-1 expressing vector was constructed by digestion of plasmid pCR2.1-rTGR23-1 with Sal I and Spe I; expressed in transfected cells; host or cells: CHO dhfr- cells, pAKKO-rTGR23-1, clone No. 34
T1 sequence (P0C0L6 with tags, fused parts or gaps DEL160-160): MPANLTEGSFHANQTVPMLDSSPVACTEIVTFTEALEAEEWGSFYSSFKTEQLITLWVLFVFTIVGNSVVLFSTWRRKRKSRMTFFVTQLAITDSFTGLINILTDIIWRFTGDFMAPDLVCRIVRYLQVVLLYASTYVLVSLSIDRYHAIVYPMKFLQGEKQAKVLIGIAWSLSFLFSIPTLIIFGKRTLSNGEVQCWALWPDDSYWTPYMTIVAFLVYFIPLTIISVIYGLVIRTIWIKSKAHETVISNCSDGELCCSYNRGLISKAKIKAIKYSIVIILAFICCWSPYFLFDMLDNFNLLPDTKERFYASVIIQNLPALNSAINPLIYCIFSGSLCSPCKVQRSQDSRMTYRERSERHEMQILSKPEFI
Method: (§1) An enhancing activity of intracellular Ca^2+ release was assayed using FLIPR (Molecular Devices, Inc.). The CHO/TGR23-2 cells prepared in Example 1 and selected in Example 2 were plated on 96-well plate at 3×10^4 cells/well and cultured for 24 hours. A loading buffer was prepared by adding 1 vial of Fluo 3-AM to 10 ml of Hanks' solution (pH7.4) containing 2.5 mM Probenecid and 20 mM HEPES (hereafter, Hanks' solution (pH7.4) containing 2.5 mM Probenecid and 20 mM HEPES may be referred to as a washing buffer). The culture medium was discarded from the culture plate and 100 μl/well of the loading buffer were added to the cells. Then, the cells were incubated for 60 minutes in the incubator. After the loading buffer was removed from the culture plate and the cells were washed with the washing buffer, the plate was put in place of FLIPR. A sample was prepared by adding a sample buffer, which 2 mg/ml BSA and 1 mg/ml CHAPS were added to the washing buffer, to lyophilized product, stirring and treating by ultrasonication for 30 minutes, and transferred to 96-well sample plate. This sample plate was also put in place for assay. The enhancing activity of intracellular Ca^2+ release was measured as an increase of fluorescent intensity, which is raised by addition of the sample.
(§2) The rat TGR23-2 ligand (1-18) having various concentrations was administered in accordance with the method described in Example 5, to the CHO cells, in which rat TGR23-1 and rat TGR23-5 are expressed. Subsequently, the intracellular Ca ion concentration increasing activity was measured using FLIPR.

[2] = biological target: T2, rat TGR23-5 expressing CHO cells (Rattus norvegicus, UniProt P0C0L6)
T2 construct: expressed in transfected cells; host or cells: CHO dhfr- cells, pAKKO-rTGR23-5, clone No. 29
T2 sequence (P0C0L6 1-372): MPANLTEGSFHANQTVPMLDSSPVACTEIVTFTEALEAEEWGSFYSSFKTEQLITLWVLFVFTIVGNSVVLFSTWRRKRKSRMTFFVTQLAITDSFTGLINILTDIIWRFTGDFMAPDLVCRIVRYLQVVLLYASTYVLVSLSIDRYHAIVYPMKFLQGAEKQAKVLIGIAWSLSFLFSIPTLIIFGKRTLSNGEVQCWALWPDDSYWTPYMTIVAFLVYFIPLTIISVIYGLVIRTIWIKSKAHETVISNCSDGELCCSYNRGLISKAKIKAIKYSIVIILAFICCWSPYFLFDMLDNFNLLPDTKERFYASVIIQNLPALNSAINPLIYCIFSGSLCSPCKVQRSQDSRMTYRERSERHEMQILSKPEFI
Method: as §1, §2

[3] = biological target: T3, human TGR23-1A expressing CHO cells (Homo sapiens, UniProt Q6W5P4, S241R)
T3 construct: expressed in transfected cells; host or cells: CHO dhfr- cells, pAKKO-TGR23-1A, clone No. 60
T3 sequence (Q6W5P4 1-371 S241R): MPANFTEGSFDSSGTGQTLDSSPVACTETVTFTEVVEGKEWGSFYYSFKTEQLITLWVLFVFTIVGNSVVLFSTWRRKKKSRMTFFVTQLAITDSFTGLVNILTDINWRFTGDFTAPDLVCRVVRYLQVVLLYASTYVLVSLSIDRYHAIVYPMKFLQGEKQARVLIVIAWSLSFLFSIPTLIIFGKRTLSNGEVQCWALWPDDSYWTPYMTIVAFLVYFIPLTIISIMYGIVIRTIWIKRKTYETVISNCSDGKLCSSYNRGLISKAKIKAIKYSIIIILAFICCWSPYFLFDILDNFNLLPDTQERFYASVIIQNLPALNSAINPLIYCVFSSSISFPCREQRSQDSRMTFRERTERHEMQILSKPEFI
Method: as §1
(§3) The human TGR23-2 ligand (1-20) having various concentrations was administered in accordance with the method described in Example 5, to the CHO cells, in which human TGR23-1A, human TGR23-1B, human TGR23-1C and human TGR23-1D are expressed. Subsequently, the intracellular Ca ion concentration increasing activity was measured using FLIPR.

[4] = biological target: T4, human TGR23-1D expressing CHO cells (Homo sapiens, UniProt Q6W5P4, Q344R)
T4 construct: expressed in transfected cells; host or cells: CHO dhfr- cells, pAKKO-TGR23-1D, clone No. 12
T4 sequence (Q6W5P4 1-371 Q344R): T3 sequence (Q6W5P4 1-371 S241R) with R241S, Q344R
Method: as §1, §3

pEC50 ([1]; rat TGR23-1 expressing cells, calculated from graph FIG. 27)	pEC50 ([2]; rat TGR23-5 expressing cells, calculated from graph FIG. 28)	Sequence	intracellular Ca ion concentration increasing activity ([1]; rat TGR23-1 expressing CHO cells)	intracellular Ca ion concentration increasing activity ([2]; rat TGR23-5 expressing CHO cells)	intracellular Ca ion concentration increasing activity [3]	intracellular Ca ion concentration increasing activity [4]
9.72	7.85	SFRNGVGSGVKKTSFRRA [rat TGR23-2 ligand (1-18), Ser-Phe-Arg-Asn-Gly-Val-Gly-Ser-Gly-Val-Lys-Lys-Thr-Ser-Phe-Arg-Arg-Ala]	the intracellular Ca ion level increased depending on the concentration of this ligand	the intracellular Ca ion level increased depending on the concentration of this ligand		
		SFRNGVGTGMKKTSFQRAKS [human TGR23-2 ligand (1-20)]			the intracellular Ca ion level increased depending on the concentration of this ligand	the intracellular Ca ion level increased depending on the concentration of this ligand
